Where two headings read alike, the source gives them in different places.

The values that follow come from patent US20260176282A1, “BICYCLIC COMPOUNDS AS CDK INHIBITORS” (BEONE MEDICINES I GMBH, priority 2023, published 2026).

One test concerns the target CDK1/Cyclin B1 (Homo sapiens, UniProt P06493). The test is described as follows: CDK1/Cyclin B1 TR-FRET biochemical assay (0.015 mM ATP). The note with it: 120 minutes reaction. Here is the method:
(§1) Compounds disclosed herein were tested for inhibition of CDK2/Cyclin E1 or CDK1/Cyclin B1 kinase in an assay based on the time-resolved fluorescence-resonance energy transfer (TR-FRET) methodology. The assay was carried out in 384-well low volume black plates in a reaction mixture containing CDK2/Cyclin E1 or CDK1/Cyclin B1, 0.060 mM ATP for CDK2/Cyclin E1 or 0.015 mM ATP for CDK1/Cyclin B1, 0.15 μM Rb (Ser780)-biotin substrate and 0-10 μM compound in buffer containing 50 mM HEPES pH7.0, 0.02% NaN3, 0.01% BSA, 0.1 mM Orthovanadate, 50 mM MgCl2, 1 mM DTT and 0.005% Tween-20. The kinase was incubated with compound for 60 minutes at room temperature and the reaction was initiated by the addition of ATP and Rb (Ser780)-biotin substrate. After reaction at room temperature for 120 minutes, an equal volume of stop/detection solution was added according to the manufacture's instruction (Cisbio Bioassays). The stop/detection solution contained Streptavidin-XL665 and Anti-pRb (Ser780) mAb-Eu Cryptate in Detection buffer (Cisbio Bioassays). Plates were incubated at room temperature for 60 minutes, and the TR-FRET signals (ex337 nm, em665 nm/620 nm) were recorded on a PHERAstar FSX plate reader (BMG Labtech). The inhibition percentage of CDK2/Cyclin E1 or CDK1/Cyclin B1 kinase activity in presence of increasing concentrations of compounds was calculated based on the ratio of fluorescence at 665 nm to that at 620 nm. The IC50 for each compound was derived from fitting the data to the four-parameter logistic equation by Dotmatics.

Another test concerns HEK-293 cells. The test is described as follows: HEK-293 cell cytotoxicity detection (CellTiter-Glo). The test is classed as cell-based. Particulars: incubation of 72 h, CellTiter-Glo luminescence. On the procedure: HEK-293 cells were treated with compounds diluted in 0.4% DMSO, dilution was done according to the following protocol: (1) making 250× stock solution in DMSO from 10 mM by 4-fold dilution, total 8 doses were included; (2) making 2 solution in cell culture medium by transferring 1 μl 250× stock solution into 124 μl medium; (3) adding 50 μl of 2× solution to cells for incubation of 72 h.
25 μl of the CellTiter-Glo® Reagent [(PromegaCat #G9242)] was added to each well in the 96-well plate. The contents were mixed for 2 minutes on an orbital shaker to induce cell lysis. The plate was then allowed to incubate at room temperature for 10 minutes to stabilize luminescent signal. Luminescence was recorded on BMG PheraStar with luminescence protocol.
The IC50 value of a compound can be obtained by fitting the following equation: […]
Wherein, X and Y are known values, and IC50, Hillslope, Top and Bottom are the parameters obtained by fitting with software. Y is the inhibition percentage (calculated from the equation), X is the concentration of the compound; IC50 is the concentration of the compound when the 50% inhibition is reached. The smaller the IC50 value is, the stronger the inhibitory ability of the compound is. Vice versa, the higher the IC50 value is, the weaker the ability the inhibitory ability of the compound is; Hillslope represents the slope of the fitted curve, generally around 1*; Bottom represents the minimum value of the curve obtained by data fitting, which is generally 0%±20%; Top represents the maximum value of the curve obtained by data fitting, which is generally 100%±20%. The experimental data were fitted by calculating and analyzing with Dotmatics data analysis software.

The target of the next test is CDK2/Cyclin E1 (Homo sapiens, UniProt P24941). Kind of test: CDK2/Cyclin E1 TR-FRET biochemical assay (0.060 mM ATP). The note with it: 120 minutes reaction. On the procedure: as §1

Sequence of CDK1/Cyclin B1 (P06493 whole entry): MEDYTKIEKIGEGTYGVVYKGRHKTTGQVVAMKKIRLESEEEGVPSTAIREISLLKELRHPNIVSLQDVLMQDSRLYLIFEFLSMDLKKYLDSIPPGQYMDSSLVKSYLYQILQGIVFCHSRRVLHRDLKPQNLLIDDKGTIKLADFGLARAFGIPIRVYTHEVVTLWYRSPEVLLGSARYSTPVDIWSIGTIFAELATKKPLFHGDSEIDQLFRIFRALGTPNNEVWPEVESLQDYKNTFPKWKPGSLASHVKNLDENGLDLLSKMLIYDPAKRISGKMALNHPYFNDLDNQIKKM
Sequence of CDK1/Cyclin B1 (P14635 whole entry partner): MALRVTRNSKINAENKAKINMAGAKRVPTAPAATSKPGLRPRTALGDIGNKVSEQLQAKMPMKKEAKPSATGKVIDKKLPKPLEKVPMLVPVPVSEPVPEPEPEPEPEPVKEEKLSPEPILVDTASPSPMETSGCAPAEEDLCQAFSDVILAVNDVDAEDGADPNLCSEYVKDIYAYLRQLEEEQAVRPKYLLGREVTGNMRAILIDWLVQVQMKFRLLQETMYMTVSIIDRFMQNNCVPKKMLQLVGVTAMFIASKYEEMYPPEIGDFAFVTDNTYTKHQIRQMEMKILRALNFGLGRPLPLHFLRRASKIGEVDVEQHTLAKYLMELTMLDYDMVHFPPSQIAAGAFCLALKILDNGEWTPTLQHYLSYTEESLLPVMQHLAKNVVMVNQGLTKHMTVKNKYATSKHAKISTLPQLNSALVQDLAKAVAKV

For the molecule `CC(C)NC(=O)O[C@H]1CC[C@@H](c2cc(Nc3ccc4c(c3)CS(=O)(=O)C4)n[nH]2)C1` (relative stereo) [Example 7, cis-3-(3-((2,2-dioxido-1,3-dihydrobenzo[c]thiophen-5-yl)amino)-1H-pyrazol-5-yl)cyclopentyl isopropylcarbamate], the IC50 (as a rule, the concentration needed to halve the response being measured) came out at 12 nM against CDK1/Cyclin B1; 684 nM in the test on HEK-293 cells (Homo sapiens, HEK293, 72 h); 1.1 nM at CDK2/Cyclin E1.

With `CC(C)NC(=O)OC1CCC(c2cc(Nc3ccc4c(c3F)CCS4(=O)=O)n[nH]2)C1` (single isomer, unassigned) [Example 2a, cis-3-(3-((4-fluoro-1,1-dioxido-2,3-dihydrobenzo[b]thiophen-5-yl)amino)-1H-pyrazol-5-yl)cyclopentyl isopropylcarbamate], the IC50 against CDK1/Cyclin B1 was 591 nM; with HEK-293 cells (Homo sapiens, HEK293, 72 h) it was > 10000 nM; at CDK2/Cyclin E1, 16 nM.

For the molecule `CC1(NC(=O)O[C@H]2CC[C@@H](c3cc(Nc4ccc5c(c4F)S(=O)(=O)CC5)n[nH]3)C2)CC1` (relative stereo) [Example 6, cis-3-(3-((7-fluoro-1,1-dioxido-2,3-dihydrobenzo[b]thiophen-6-yl)amino)-1H-pyrazol-5-yl)cyclopentyl (1-methylcyclopropyl)carbamate], the IC50 came out at 20 nM against CDK1/Cyclin B1; 440 nM in the test on HEK-293 cells (Homo sapiens, HEK293, 72 h); 1.1 nM against CDK2/Cyclin E1.

Turning to `CC[C@H](C)NC(=O)OC1CCC(c2cc(Nc3ccc4c(c3F)CS(=O)(=O)C4)n[nH]2)C1` (stereo in doubt) [Example 10, cis-3-(3-((4-fluoro-2,2-dioxido-1,3-dihydrobenzo[c]thiophen-5-yl)amino)-1H-pyrazol-5-yl)cyclopentyl ((S)-sec-butyl)carbamate], the IC50 was determined as 5 nM on CDK1/Cyclin B1; 203 nM in the test with HEK-293 cells (Homo sapiens, HEK293, 72 h); 0.4 nM on CDK2/Cyclin E1.

Regarding `CC1(NC(=O)O[C@H]2CC[C@@H](c3cc(Nc4ccc5c(c4F)CS(=O)(=O)C5)n[nH]3)C2)CC1` (relative stereo) [Example 11, cis-3-(3-((4-fluoro-2,2-dioxido-1,3-dihydrobenzo[c]thiophen-5-yl)amino)-1H-pyrazol-5-yl)cyclopentyl (1-methylcyclopropyl)carbamate], the IC50 on CDK1/Cyclin B1 was 3.3 nM; in the test with HEK-293 cells (Homo sapiens, HEK293, 72 h), 317 nM; at CDK2/Cyclin E1, 0.3 nM.

Take `CC(C)NC(=O)OC1CCC(c2cc(Nc3ccc4c(c3F)S(=O)(=O)CC4)n[nH]2)C1` (single isomer, unassigned) [Example 3b, cis-3-(3-((7-fluoro-1,1-dioxido-2,3-dihydrobenzo[b]thiophen-6-yl)amino)-1H-pyrazol-5-yl)cyclopentyl isopropylcarbamate]: the values for the IC50 at CDK1/Cyclin B1, in the test on HEK-293 cells (read-out: HEK293 IC50) and at CDK2/Cyclin E1 were 31 nM, 677 nM and 1.9 nM, respectively.

`CC(C)NC(=O)OC1CCC(c2cc(Nc3ccc4c(c3F)S(=O)(=O)CC4)n[nH]2)C1` (single isomer, unassigned) [Example 3a, cis-3-(3-((7-fluoro-1,1-dioxido-2,3-dihydrobenzo[b]thiophen-6-yl)amino)-1H-pyrazol-5-yl)cyclopentyl isopropylcarbamate]: the figures for the IC50 against CDK1/Cyclin B1, in the test with HEK-293 cells (read-out: HEK293 IC50) and at CDK2/Cyclin E1 were 132 nM, 1780 nM and 4.1 nM, respectively.

As to `CC(C)NC(=O)O[C@H]1CC[C@@H](c2cc(Nc3ccc4c(c3F)CS(=O)(=O)C4)n[nH]2)C1` (relative stereo) [Example 8b, cis-3-(3-((4-fluoro-2,2-dioxido-1,3-dihydrobenzo[c]thiophen-5-yl)amino)-1H-pyrazol-5-yl)cyclopentyl isopropylcarbamate], the IC50 against CDK1/Cyclin B1 was found to be 7.9 nM; with HEK-293 cells (Homo sapiens, HEK293, 72 h) it was 462 nM; at CDK2/Cyclin E1, 0.5 nM.

Turning to `COCC(C)(C)NC(=O)O[C@H]1CC[C@@H](c2cc(Nc3ccc4c(c3F)CS(=O)(=O)C4)n[nH]2)C1` (relative stereo) [Example 14, cis-3-(3-((4-fluoro-2,2-dioxido-1,3-dihydrobenzo[c]thiophen-5-yl)amino)-1H-pyrazol-5-yl)cyclopentyl (1-methoxy-2-methylpropan-2-yl)carbamate], the IC50 was 10 nM at CDK1/Cyclin B1; > 10000 nM in the test with HEK-293 cells (Homo sapiens, HEK293, 72 h); 0.6 nM at CDK2/Cyclin E1.

With `CC(C)NC(=O)OC1CCC(c2cc(Nc3ccc4c(c3F)CCS4(=O)=O)n[nH]2)C1` (single isomer, unassigned) [Example 2b, cis-3-(3-((4-fluoro-1,1-dioxido-2,3-dihydrobenzo[b]thiophen-5-yl)amino)-1H-pyrazol-5-yl)cyclopentyl isopropylcarbamate], the results for the IC50 against CDK1/Cyclin B1, with HEK-293 cells (read-out: HEK293 IC50) and against CDK2/Cyclin E1 were 207 nM, > 10000 nM and 4.8 nM, respectively.

For `CCCNC(=O)OC1CCC(c2cc(Nc3ccc4c(c3F)CS(=O)(=O)C4)n[nH]2)C1` (single isomer, unassigned) [Example 9b, cis-3-(3-((4-fluoro-2,2-dioxido-1,3-dihydrobenzo[c]thiophen-5-yl)amino)-1H-pyrazol-5-yl)cyclopentyl propylcarbamate], the figures for the IC50 on CDK1/Cyclin B1, in the test on HEK-293 cells (read-out: HEK293 IC50) and against CDK2/Cyclin E1 were 12 nM, 4410 nM and 0.7 nM, respectively.

Regarding `CCCNC(=O)O[C@H]1CC[C@@H](c2cc(Nc3ccc4c(c3F)S(=O)(=O)CC4)n[nH]2)C1` (relative stereo) [Example 4, cis-3-(3-((7-fluoro-1,1-dioxido-2,3-dihydrobenzo[b]thiophen-6-yl)amino)-1H-pyrazol-5-yl)cyclopentyl propylcarbamate], the IC50 was 191 nM on CDK1/Cyclin B1; 8590 nM in the test with HEK-293 cells (Homo sapiens, HEK293, 72 h); 17 nM on CDK2/Cyclin E1.

On to `CC[C@H](C)NC(=O)OC1CCC(c2cc(Nc3ccc4c(c3F)S(=O)(=O)CC4)n[nH]2)C1` (stereo in doubt) [Example 5, cis-3-(3-((7-fluoro-1,1-dioxido-2,3-dihydrobenzo[b]thiophen-6-yl)amino)-1H-pyrazol-5-yl)cyclopentyl ((S)-sec-butyl)carbamate], for which the IC50 at CDK1/Cyclin B1 was found to be 117 nM; in the test on HEK-293 cells (Homo sapiens, HEK293, 72 h), 1650 nM; against CDK2/Cyclin E1, 5 nM.

`CCCNC(=O)OC1CCC(c2cc(Nc3ccc4c(c3F)CS(=O)(=O)C4)n[nH]2)C1` (single isomer, unassigned) [Example 9a, cis-3-(3-((4-fluoro-2,2-dioxido-1,3-dihydrobenzo[c]thiophen-5-yl)amino)-1H-pyrazol-5-yl)cyclopentyl propylcarbamate]: the IC50 is 50 nM against CDK1/Cyclin B1, > 10000 nM in the test on HEK-293 cells (read-out: HEK293 IC50) and 0.8 nM at CDK2/Cyclin E1.

As to `CC(C)NC(=O)O[C@@H]1CC[C@H](c2cc(Nc3ccc4c(c3F)CS(=O)(=O)C4)n[nH]2)C1` (single isomer, unassigned) [Example 8a, cis-3-(3-((4-fluoro-2,2-dioxido-1,3-dihydrobenzo[c]thiophen-5-yl)amino)-1H-pyrazol-5-yl)cyclopentyl isopropylcarbamate], the IC50 was found to be 30 nM on CDK1/Cyclin B1; 514 nM in the test with HEK-293 cells (Homo sapiens, HEK293, 72 h); 0.7 nM at CDK2/Cyclin E1.
